Series [1] in a line: Dissolution of drug for cytotoxicity testing. It counts as physicochemical. Set-up: key: X*: Did not dissolve at normal pH. To be noted: footnote of Table 3. The method, then:
Drug solutions were prepared by dissolving it into 4.5% dimethylsulfoxide and diluting with distilled water to a final concentration of 1 mM. A series of dilutions were prepared and a wavelength scan of the diluted solution was used to determine the wavelength of maximum absorbance for each compound. Five standardized drug concentrations were scanned at this pre-determined wavelength to obtain an estimate of the compound's extinction coefficient.

The subject of series [2] is A549 (Human lung adenocarcinoma). The series is described as follows: cells. Type of series: cell-based. To be noted: A549, 72 hours, precision +/−0.5 or better. The source says: (§1) A full factorial experimental design was used, for a total of 28 cases.
(§2) For each (cell line, compound) pair, the following conditions were used, with each condition being assigned to a lane on a microtiter plate: • a. Seven or eight concentration levels between 1×10^−10 M and 1×10^−3 M. • b. A control with cells and media only. • c. A control with cells, media and DMSO only. The DMSO was at a concentration approximately equal to that used in the highest drug concentration level.
(§3) Additionally, 6-8 replicates (wells) of each condition were done on the plate. Drug solutions were prepared by dissolving the solid compounds in DMSO and then diluting in water. An approximately equal number of cells were introduced into each well of the plate and cells were incubated for 72 hours. An MTS assay was performed and absorbance values were measured with a spectrophotometer. Finally, a log IC50 parameter was calculated by fitting a 4-parameter logistic model to the data using an implementation of the Levenberg-Marquardt algorithm.

The subject of series [3] is NCI-H226 (Human lung squamous cell carcinoma). The experiment in a line: cells. Type of series: cell-based. To be noted: NCI-H226, 72 hours, precision +/−0.5 or better.
Description: as §1, §2, §3

For series [4], the system named is CCRF-CEM (Human T-lymphoblastoids from ALL). The series is described as follows: cells. Type of series: cell-based. The settings on record: 72 hours, precision +/−0.5 or better.
Description: as §1, §2, §3

The next series has as its system CEM cells. Type of series: cell-based, Human.
Series [5] has as its system MCF-7 (Human mammary gland adenocarcinoma). The experiment in a line: cells. It counts as cell-based. To be noted: MCF7, MCF-7, 72 hours, precision +/−0.5 or better.
Description: as §1, §2, §3

pIC50: −log10 of the molar value.

On to `COc1cc2c(c(OCc3ccccc3Cl)c1OC)-c1ccc(OC)c(=O)cc1[C@@H](NC(C)=O)CC2` [Compound 14, N-[(7S)-2,3,10-trimethoxy-9-oxo-1-((phenyl(2-chloro))methoxy)-5,6,7,9-tetrahydrobenzo[α]heptalen-7-yl]acetamide], for which the “dissolution at normal pH” value in series [1] was “X*”. Take `COc1cc2c(c(OC)c1OC)-c1ccc(OC)c(=O)cc1[C@@H](NC(=O)CNC(=O)C(F)(F)F)CC2` [Compound 28a]: the negative-log IC50 (pIC50) in series [2] was 6.20; in series [3] it was 6.50; in series [4] it was 7.40.

As for `COc1c(O)cc2c(c1OC)-c1ccc(SC)c(=O)cc1[C@@H](N(C(C)=O)C(=O)CNC(=O)C(F)(F)F)CC2` [Compound 47, N-[(7S)-3-hydroxy-1,2-dimethoxy-10-methylsulfanyl-9-oxo-5,6,7,9-tetrahydrobenzo[α]heptalen-7-yl]-N-[(trifluoroacetyl)glycyl]acetamide], in the series with CEM cells, the “fold lower IC50 than IC50 of (39)” value is on record as “about 8 fold”. Turning to `COc1cc2c(c(OC)c1OC)-c1ccc(SC)c(=O)cc1[C@@H](NC(=O)CNC(=O)C(F)(F)F)CC2` [Compound 47a], the negative logarithm of the IC50 (pIC50) in series [2] is 7.20; in series [3], 7.30; in series [4] it was 8.20; in series [5], 3.90. As to `C=CCOc1cc2c(c(OC)c1OC)-c1ccc(SC)c(=O)cc1[C@@H](N(C(C)=O)C(=O)CNC(=O)C(F)(F)F)CC2` [Compound 48, N-[(7S)-1,2-dimethoxy-10-methylsulfanyl-9-oxo-3-(prop-2-enoxy)-5,6,7,9-tetrahydrobenzo[α]heptalen-7-yl]-N-[(trifluoroacetyl)glycyl]acetamide], in the series with CEM cells, the “fold lower IC50 than IC50 of (39)” value is given as “about 8 fold”.

Consider `CCOc1cc2c(c(OC)c1OC)-c1ccc(SC)c(=O)cc1[C@@H](N(C(C)=O)C(=O)CNC(=O)C(F)(F)F)CC2` [Compound 49, N-[(7S)-3-ethoxy-1,2-dimethoxy-10-methylsulfanyl-9-oxo-5,6,7,9-tetrahydrobenzo[α]heptalen-7-yl]-N-[(trifluoroacetyl)glycyl]acetamide], for which, in the series with CEM cells, the “fold lower IC50 than IC50 of (39)” value is “about 8 fold”.

The values are drawn from patent US9458101B2 (priority 2009, dated 2016).
